ChEMBL document CHEMBL1201862, “PubChem BioAssay data set” (2004)
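Five compound concentrations were applied to cells in 96-well plates for 48 hours; endpoints were derived by simple linear interpolation of the resulting dose-response curve. GI50 is the concentration that inhibits growth by half.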 Calls of active or inactive are those of the source. No stated cut-off is given here; in the data, active = GI50 up to about 1.1 µM and inactive = higher.

Experiments:
Assay in all cases: NCI anticancer screen, dose series, 48 h
SF-295 = test system: SF-295
DU-145 = test system: DU-145
A549 = test system: A549
A498 = test system: A498
SNB-19 = test system: SNB-19
COLO 205 = test system: COLO 205
MDA-N = test system: MDA-N
PC-3 = test system: PC-3
OVCAR-8 = test system: OVCAR-8
SNB-75 = test system: SNB-75
SK-OV-3 = test system: SK-OV-3
MDA-MB-231 = test system: MDA-MB-231
Hs-578T = test system: Hs-578T
UACC-62 = test system: UACC-62
M14 = test system: M14
SK-MEL-28 = test system: SK-MEL-28
786-0 = test system: 786-0
HCT-15 = test system: HCT-15
EKVX = test system: EKVX
OVCAR-3 = test system: OVCAR-3
KM12 = test system: KM12
ACHN = test system: ACHN
NCI-H226 = test system: NCI-H226
CCRF-CEM = test system: CCRF-CEM
K562 = test system: K562
U-251 = test system: U-251
NCI-H460 = test system: NCI-H460
OVCAR-4 = test system: OVCAR-4
UACC-257 = test system: UACC-257
MDA-MB-435 = test system: MDA-MB-435
SW-620 = test system: SW-620
CAKI-1 = test system: CAKI-1
BT-549 = test system: BT-549
HCT-116 = test system: HCT-116
NCI-H23 = test system: NCI-H23
SK-MEL-2 = test system: SK-MEL-2
Malme-3M = test system: Malme-3M
UO-31 = test system: UO-31
OVCAR-5 = test system: OVCAR-5
SF-268 = test system: SF-268
HOP-62 = test system: HOP-62
MCF7 = test system: MCF7
SF-539 = test system: SF-539
RPMI-8226 = test system: RPMI-8226
SN12C = test system: SN12C
T47D = test system: T47D
HT-29 = test system: HT-29
NCI/ADR-RES = test system: NCI/ADR-RES
HCC 2998 = test system: HCC 2998
MOLT-4 = test system: MOLT-4
RXF 393 = test system: RXF 393
HOP-92 = test system: HOP-92
IGROV-1 = test system: IGROV-1
NCI-H522 = test system: NCI-H522
HL-60 = test system: HL-60
TK-10 = test system: TK-10
LOX IMVI = test system: LOX IMVI
SK-MEL-5 = test system: SK-MEL-5

For `C(#C[C@@]12CCC[C@@H]1N(Cc1ccccc1)CO2)c1ccc2c(c1)OCO2`, the GI50 (SF-295) was > 100 µM (inactive), the GI50 (DU-145) was > 100 µM (inactive) and the GI50 (A549) was > 100 µM (inactive). The GI50 (A498) was > 100 µM (inactive), the GI50 (SNB-19) was > 100 µM (inactive) and the GI50 (COLO 205) was > 100 µM (inactive). For the same molecule, the GI50 (MDA-N) was > 100 µM (inactive), the GI50 (PC-3) was > 100 µM (inactive) and the GI50 (OVCAR-8) was > 100 µM (inactive). The GI50 (SNB-75) was > 100 µM (inactive), the GI50 (SK-OV-3) was > 100 µM (inactive) and the GI50 (MDA-MB-231) was > 100 µM (inactive). The GI50 (Hs-578T) was 65 µM (inactive), the GI50 (UACC-62) was > 100 µM (inactive) and the GI50 (M14) was > 100 µM (inactive). The GI50 (SK-MEL-28) was > 100 µM (inactive), the GI50 (786-0) was > 100 µM (inactive) and the GI50 (HCT-15) was > 100 µM. The GI50 (EKVX) was > 100 µM (inactive), the GI50 (OVCAR-3) was > 100 µM (inactive) and the GI50 (KM12) was > 100 µM (inactive). For the same molecule, the GI50 (ACHN) was > 100 µM (inactive), the GI50 (NCI-H226) was > 100 µM (inactive) and the GI50 (CCRF-CEM) was > 100 µM (inactive). The GI50 (K562) was > 100 µM (inactive), the GI50 (U-251) was > 100 µM (inactive) and the GI50 (NCI-H460) was > 100 µM (inactive). The GI50 (OVCAR-4) was > 100 µM (inactive), the GI50 (UACC-257) was > 100 µM (inactive) and the GI50 (MDA-MB-435) was > 100 µM (inactive). The GI50 (SW-620) was > 100 µM (inactive), the GI50 (CAKI-1) was > 100 µM (inactive) and the GI50 (BT-549) was > 100 µM (inactive). For the same molecule, the GI50 (HCT-116) was > 100 µM (inactive), the GI50 (NCI-H23) was > 100 µM (inactive) and the GI50 (SK-MEL-2) was > 100 µM (inactive). For the same molecule, the GI50 (Malme-3M) was > 100 µM (inactive), the GI50 (UO-31) was > 100 µM (inactive) and the GI50 (OVCAR-5) was > 100 µM (inactive). The GI50 (SF-268) was > 100 µM (inactive), the GI50 (HOP-62) was > 100 µM (inactive) and the GI50 (MCF7) was > 100 µM (inactive). The GI50 (SF-539) was > 100 µM (inactive), the GI50 (RPMI-8226) was > 100 µM (inactive) and the GI50 (SN12C) was > 100 µM (inactive). The GI50 (T47D) was > 100 µM (inactive), the GI50 (HT-29) was > 100 µM (inactive) and the GI50 (NCI/ADR-RES) was > 100 µM (inactive). For the same molecule, the GI50 (HCC 2998) was > 100 µM (inactive), the GI50 (MOLT-4) was > 100 µM (inactive) and the GI50 (RXF 393) was > 100 µM (inactive).
For `O=C(CC(=O)CC(O)(C(F)(F)F)C(F)(F)F)CC(O)(C(F)(F)F)C(F)(F)F`, the GI50 (SF-295) was > 10 µM (inactive), the GI50 (DU-145) was > 10 µM (inactive) and the GI50 (A549) was > 10 µM (inactive). The GI50 (A498) was > 10 µM (inactive), the GI50 (SNB-19) was > 10 µM (inactive) and the GI50 (COLO 205) was > 10 µM (inactive). For the same molecule, the GI50 (HOP-92) was 5.75 µM (inactive), the GI50 (MDA-N) was > 10 µM (inactive) and the GI50 (OVCAR-8) was > 10 µM (inactive). The GI50 (SNB-75) was > 10 µM (inactive), the GI50 (SK-OV-3) was > 10 µM (inactive) and the GI50 (MDA-MB-231) was > 10 µM (inactive). For the same molecule, the GI50 (Hs-578T) was > 10 µM (inactive), the GI50 (UACC-62) was > 10 µM (inactive) and the GI50 (M14) was > 10 µM (inactive). The GI50 (SK-MEL-28) was > 10 µM (inactive), the GI50 (786-0) was > 10 µM (inactive) and the GI50 (HCT-15) was > 10 µM. The GI50 (IGROV-1) was > 10 µM (inactive), the GI50 (EKVX) was > 10 µM (inactive) and the GI50 (OVCAR-3) was > 10 µM (inactive). For the same molecule, the GI50 (KM12) was > 10 µM (inactive), the GI50 (NCI-H522) was > 10 µM (inactive) and the GI50 (ACHN) was > 10 µM (inactive). For the same molecule, the GI50 (NCI-H226) was > 10 µM (inactive), the GI50 (CCRF-CEM) was > 10 µM (inactive) and the GI50 (K562) was > 10 µM (inactive). For the same molecule, the GI50 (U-251) was > 10 µM (inactive), the GI50 (NCI-H460) was > 10 µM (inactive) and the GI50 (OVCAR-4) was > 10 µM (inactive). The GI50 (UACC-257) was > 10 µM (inactive), the GI50 (MDA-MB-435) was > 10 µM (inactive) and the GI50 (SW-620) was > 10 µM (inactive). For the same molecule, the GI50 (CAKI-1) was > 10 µM (inactive), the GI50 (BT-549) was > 10 µM (inactive) and the GI50 (HCT-116) was > 10 µM (inactive). For the same molecule, the GI50 (NCI-H23) was > 10 µM (inactive), the GI50 (SK-MEL-2) was > 10 µM (inactive) and the GI50 (Malme-3M) was > 10 µM (inactive). For the same molecule, the GI50 (UO-31) was > 10 µM (inactive), the GI50 (OVCAR-5) was > 10 µM (inactive) and the GI50 (SF-268) was > 10 µM (inactive). For the same molecule, the GI50 (HOP-62) was > 10 µM (inactive), the GI50 (HL-60) was > 10 µM (inactive) and the GI50 (TK-10) was > 10 µM (inactive). The GI50 (MCF7) was > 10 µM (inactive), the GI50 (LOX IMVI) was > 10 µM (inactive) and the GI50 (SF-539) was > 10 µM (inactive). The GI50 (RPMI-8226) was > 10 µM (inactive), the GI50 (SN12C) was > 10 µM (inactive) and the GI50 (T47D) was > 10 µM (inactive). The GI50 (HT-29) was 8.49 µM (inactive), the GI50 (NCI/ADR-RES) was > 10 µM (inactive) and the GI50 (MOLT-4) was > 10 µM (inactive). The GI50 (RXF 393) was > 10 µM (inactive) and the GI50 (SK-MEL-5) was > 10 µM (inactive).
